Data taken from ChEMBL document CHEMBL4811222, “Antitumor Activity of Asperphenin B by Induction of Apoptosis and Regulation of Glyceraldehyde-3-phosphate Dehydrogenase in Human Colorectal Cancer Cells” (J Nat Prod, 2021).
pIC50: −log10 of the molar value. Activity calls are given as the source filed them. The rule behind the calls is not given here.

Assays:
HCT-116 = assay: Antiproliferative activity against human HCT-116 cells assessed as inhibition of cell growth incubated for 72 hrs by SRB assay; format: functional, cell-based; conditions: HCT-116, 72 h
RKO [1] = assay: Antitumor activity against human RKO cells implanted in BALB/c nude mouse assessed as inhibition of tumor growth at 4 mg/kg, ip administered three times per week for 21 days and measured every 3 to 4 days by electronic caliper method; format: functional; conditions: time 21.0 day
RKO [2] = assay: Suppression of GAPDH protein expression in human RKO cells at 2.5 to 10 uM after 24 hrs by Western blotting analysis; format: functional, cell-based; conditions: dose 2.5-10 µM
CCD-18Co = assay: Antiproliferative activity against human CCD-18Co cells assessed as inhibition of cell growth incubated for 72 hrs by SRB assay; format: cell-based
RKO [3] = assay: Antiproliferative activity against human RKO cells assessed as inhibition of cell growth incubated for 72 hrs by SRB assay; format: functional, cell-based
SW480 = assay: Antiproliferative activity against human SW480 cells assessed as inhibition of cell growth incubated for 72 hrs by SRB assay; format: functional, cell-based; conditions: SW480, 72 h
RKO [4] = assay: Antitumor activity against human RKO cells implanted in BALB/c nude mouse assessed as inhibition of tumor growth at 8 mg/kg, ip administered three times per week for 21 days and measured every 3 to 4 days by electronic caliper method; format: functional; conditions: time 21.0 day
RKO [5] = assay: Antitumor activity against human RKO cells implanted in ip dosed BALB/c nude mouse assessed as suppression of GAPDH expression in tumor lysates administered three times per week for 21 days by Western blotting analysis; format: functional, organism-based; conditions: Neoplasm, time 21.0 day
CCD-841CoN = assay: Antiproliferative activity against human CCD-841CoN cells assessed as inhibition of cell growth incubated for 72 hrs by SRB assay; format: cell-based
RKO [6] = assay: Antitumor activity against human RKO cells implanted in BALB/c nude mouse assessed as suppression of Ki67 expression level in tumor lysates at 4 to 8 mg/kg, ip administered three times per week for 21 days by Western blotting analysis; format: functional, organism-based; conditions: Neoplasm, dose 4-8 mg/kg, time 21.0 day
LS174T = assay: Antiproliferative activity against human LS174T cells assessed as inhibition of cell growth incubated for 72 hrs by SRB assay; format: functional, cell-based

| SMILES | pIC50 (HCT-116) | TGI (RKO [1]) | Activity (RKO [2]) | pIC50 (CCD-18Co) | pIC50 (RKO [3]) | pIC50 (SW480) | TGI (RKO [4]) | Activity (RKO [5]) | pIC50 (CCD-841CoN) | Activity (RKO [6]) | pIC50 (LS174T) |
| --- | --- | --- | --- | --- | --- | --- | --- | --- | --- | --- | --- |
| CCCCCCCCC[C@@H](O)CC(=O)N[C@@H](CC(N)=O)C(=O)N[C@@H](CCC(N)=O)C(=O)N[C@@H](CC(C)C)C1=C(c2c(O)cccc2O)c2c(O)cc(C)cc2C1=O | < 4.30 | inactive | inactive | < 4.30 | < 4.30 | < 4.30 | inactive | inactive | < 4.30 | inactive | < 4.30 |
| COc1cc([C@@H]2c3cc4c(cc3[C@@H](O[C@@H]3O[C@@H]5CO[C@@H](C)O[C@H]5[C@H](O)[C@H]3O)[C@H]3COC(=O)[C@H]23)OCO4)cc(OC)c1O [ETOPOSIDE] | 6.18 |  |  | 4.73 | 5.71 | 5.95 |  |  | 5.06 |  | 6.32 |
